Tested on: pulmonary hypertensive male Wistar rats treated with monocrotaline
Test: Acute effect on mean pulmonary arterial pressure in monocrotaline treated rats (monocrotaline model of pulmonary hypertension, variant 2)
Assay type: in vivo, rat
Details: single administration, 25 to 30 days after monocrotaline, negative area = pressure decreases
Description: Male Wistar rats are purchased from Harlan (Netherlands) and maintained under conditions in accordance with local guidelines (Basel-Landschaft cantonal veterinary office). All rats are housed in climate-controlled conditions with a 12:12 hour light:dark cycle, and had free access to chow and water. A telemetry system is implanted under anaesthesia by inhalation of 2.5% isoflurane (in 70% O2+30% N2O). Under aseptic conditions, a pressure radio-frequency transmitter is implanted into the peritoneal cavity, and a sensing catheter is inserted in the pulmonary artery. The transmitter is sutured to the abdominal musculature and the skin is closed. […]
Four weeks after injection of MCT, the rats become pulmonary hypertensive and the respective effects of a single oral administration of Macitentan, of the compound having prostacyclin receptor (IP) agonist properties and of their combination can be evaluated on mean pulmonary arterial pressure. […]
Mean pulmonary arterial pressure was measured over time. […] Area Under Curve (AUC) was calculated for each group of rats after the oral administration of the different treatment(s) (a positive area being found if the mean pulmonary arterial blood pressure increases and a negative area being found if the mean pulmonary arterial blood pressure decreases).

**Q.** With `CC(C)N(CCCCOCC(=O)NS(C)(=O)=O)c1cnc(-c2ccccc2)c(-c2ccccc2)n1` [NS-304, 2-{4-[(5,6-diphenylpyrazin-2-yl)(isopropyl)amino]butoxy}-N-(methylsulfonyl)acetamide] as the molecule, how does the “AUC (Area Under Curve of mean pulmonary arterial pressure vs time)” value (NS-304 30 mg/kg per os) read?
**A.** −99 ± 128

**Q.** With `CCCNS(=O)(=O)Nc1ncnc(OCCOc2ncc(Br)cn2)c1-c1ccc(Br)cc1` [macitentan] as the molecule, how does the “AUC (Area Under Curve of mean pulmonary arterial pressure vs time)” value (macitentan 10 mg/kg per os) read?
**A.** −381 ± 147
